Source: US9247759B2, “Identification of human T2R receptors that respond to bitter compounds that elicit the bitter taste in compositions, and the use thereof in assays to identify compounds that inhibit (block) bitter taste in compositions and use thereof” (SENOMYX, INC., priority 2007, dated 2016)

Assays:
hT2R5 = hT2R5 (Homo sapiens (Human), UniProt Q9NYW4); assay: hT2R panel inhibition, transient HEK293 G16g44, agonist Picoline 10 mM; format: cell-based; details: HEK293, compound at 25 μM; receptor activated to EC80 with the corresponding agonist; read-out: screening result against bitter receptor 5
Procedure, shortened: (§1)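 Transfect one hT2R per well set; stimulate with agonist at EC80; add test compound; record reduction of functional response as inhibition.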

hT2R7 = hT2R7 (Homo sapiens (Human), UniProt Q9NYW3); assay: hT2R panel inhibition, transient HEK293 G16g44, agonist Chloroquine pH6.5 10 mM; format: cell-based; details: HEK293, compound at 25 μM; receptor activated to EC80 with the corresponding agonist; read-out: screening result against bitter receptor 7
Procedure, shortened: as §1

hT2R10 = hT2R10 (Homo sapiens (Human), UniProt Q9NYW0); assay: hT2R panel inhibition, transient HEK293 G16g44, agonist Strychnine 50 μM; format: cell-based; details: receptor activated to EC80 with the corresponding agonist
hT2R16 = hT2R16 (Homo sapiens (Human), UniProt Q9NYV7); assay: hT2R panel inhibition, transient HEK293 G16g44, agonist Salicin 1 mM; format: cell-based; details: HEK293, compound at 25 μM; receptor activated to EC80 with the corresponding agonist; read-out: screening result against bitter receptor 16
Procedure, shortened: as §1

hT2R3 = hT2R3 (Homo sapiens (Human), UniProt Q9NYW6); assay: hT2R panel inhibition, transient HEK293 G16g44, agonist Chloroquine pH6.5 50 μM; format: cell-based; details: receptor activated to EC80 with the corresponding agonist; for inhibition at 25 µM: HEK293, compound at 25 μM, read-out: screening result against bitter receptor 3
Procedure, shortened: as §1

hT2R51 = hT2R51 (Homo sapiens (Human), UniProt P59533); assay: hT2R panel inhibition, transient HEK293 G16g44, agonist Prop 2.5 μM; format: cell-based; details: receptor activated to EC80 with the corresponding agonist
Procedure, shortened: as §1

hT2R65 = assay: hT2R panel inhibition, transient HEK293 G16g44, agonist Oleuropein 1 mM; format: cell-based, human; details: compound at 25 μM; receptor activated to EC80 with the corresponding agonist
Procedure, shortened: as §1

hT2R8 = hT2R8 (Homo sapiens (Human), UniProt Q9NYW2); assay: hT2R panel inhibition, transient HEK293 G16g44, agonist Andrographolide 0.5 mM; format: cell-based; details: HEK293, compound at 25 μM; receptor activated to EC80 with the corresponding agonist; read-out: screening result against bitter receptor 8
Procedure: Specifically, in order to evaluate the inhibitory selectivity of the Compound C compound, this compound was tested against 22 human T2Rs which were deorphaned by Senomyx. These receptors and the bitter ligands that activate these human T2Rs are reported in earlier patent applications which are incorporated by reference herein. These 22 human T2Rs are hT2R1, 3, 4, 5, 7, 8, 9, 10, 13, 14, 16, 44, 51, 54, 55, 61, 63, 64, 65, 67, 71 and 75. The amino acid and nucleic acid sequences of all of these T2Rs may be found in these earlier patent applications. These human T2Rs were each individually transiently transfected into HEK293 cells that stably express the promiscuous G protein G16g44 and functional assays were effected using these receptors as disclosed in these same patent applications. […] The ligands were used at EC80 concentration levels. The list of bitter ligands utilized and the tested ligand concentrations are contained in Table 5 of this example.

hT2R63 = assay: hT2R panel inhibition, transient HEK293 G16g44, agonist Caffeine 1 mM or Andrographolide 100 μM; format: cell-based, human; details: compound at 25 μM; receptor activated to EC80 with the corresponding agonist
Procedure, shortened: as §1

hT2R44 = assay: hT2R panel inhibition, transient HEK293 G16g44, agonist Denatonium 0.5 μM; format: cell-based, human; details: compound at 25 μM; receptor activated to EC80 with the corresponding agonist
Procedure, shortened: as §1

hT2R55 = assay: hT2R panel inhibition, transient HEK293 G16g44, agonist Cinchonine 150 μM; format: cell-based, human; details: compound at 25 μM; receptor activated to EC80 with the corresponding agonist
Procedure, shortened: as §1

hT2R61 = hT2R61 (Homo sapiens (Human), UniProt P59537); assay: hT2R panel inhibition, transient HEK293 G16g44, agonist Aristolochic Acid 25 nM; format: cell-based; details: HEK293, compound at 25 μM; receptor activated to EC80 with the corresponding agonist; read-out: screening result against bitter receptor 61
Procedure, shortened: as §1

hT2R54 = assay: hT2R panel inhibition, transient HEK293 G16g44, agonist Ranitidine 5 mM; format: cell-based, human; details: compound at 25 μM; receptor activated to EC80 with the corresponding agonist
Procedure, shortened: as §1

hT2R14 [1] = biological target: T1, hT2R14 (Homo sapiens (Human), UniProt Q9NYV8); assay: hT2R panel inhibition, transient HEK293 G16g44, agonist Aristolochic Acid 2 μM; format: cell-based; details: HEK293, compound at 25 μM; receptor activated to EC80 with the corresponding agonist; read-out: screening result against bitter receptor 14
Procedure, shortened: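 Each hT2R was transiently transfected into HEK293 cells stably expressing G16g44 and assayed functionally for inhibition of agonist response. Agonists were applied at EC80: andrographolide at 0.5 mM for hT2R8 and aristolochic acid at 2 μM for hT2R14.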

hT2R71 = hT2R71 (Homo sapiens (Human), UniProt P59536); assay: hT2R panel inhibition, transient HEK293 G16g44, agonist Picric Acid 10 μM; format: cell-based; details: receptor activated to EC80 with the corresponding agonist
Procedure, shortened: as §1

hT2R64 = hT2R64 (Homo sapiens (Human), UniProt P59538); assay: hT2R panel inhibition, transient HEK293 G16g44, agonist Aristolochic Acid 1 μM; format: cell-based; details: HEK293, compound at 25 μM; receptor activated to EC80 with the corresponding agonist; read-out: screening result against bitter receptor 64
Procedure, shortened: as §1

hT2R67 = assay: hT2R panel inhibition, transient HEK293 G16g44, agonist Andrographolide 5 μM; format: cell-based, human; details: compound at 25 μM; receptor activated to EC80 with the corresponding agonist
Procedure, shortened: as §1

hT2R75 = hT2R75 (Homo sapiens (Human), UniProt P59540); assay: hT2R panel inhibition, transient HEK293 G16g44, agonist Strychnine 1 μM; format: cell-based; details: HEK293, read-out: screening result against bitter receptor 75, compound at 25 μM; receptor activated to EC80 with the corresponding agonist
hT2R14 [2] = biological target: T1, hT2R14; assay: hT2R14 antagonist high-throughput FLIPR assay, stable cell line with G16g44, agonist aristolochic acid; format: cell-based; details: Table C; read-out: hT2R14 IC50
Procedure, shortened: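 HEK293 cells stably expressing hT2R14 with chimeric G16g44 were stimulated with aristolochic acid (3 μM), giving 70-80% of maximal receptor activity. Test compounds were added together with the agonist, and antagonism was read as fluorescent calcium signal on FLIPR.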

hT2R9 = hT2R9 (Homo sapiens (Human), UniProt Q9NYW1); assay: hT2R panel inhibition, transient HEK293 G16g44, agonist Ofloxacin 1 mM; format: cell-based; details: HEK293, compound at 25 μM; receptor activated to EC80 with the corresponding agonist; read-out: screening result against bitter receptor 9
Procedure, shortened: as §1

Chain of hT2R3 (Q9NYW6 whole entry): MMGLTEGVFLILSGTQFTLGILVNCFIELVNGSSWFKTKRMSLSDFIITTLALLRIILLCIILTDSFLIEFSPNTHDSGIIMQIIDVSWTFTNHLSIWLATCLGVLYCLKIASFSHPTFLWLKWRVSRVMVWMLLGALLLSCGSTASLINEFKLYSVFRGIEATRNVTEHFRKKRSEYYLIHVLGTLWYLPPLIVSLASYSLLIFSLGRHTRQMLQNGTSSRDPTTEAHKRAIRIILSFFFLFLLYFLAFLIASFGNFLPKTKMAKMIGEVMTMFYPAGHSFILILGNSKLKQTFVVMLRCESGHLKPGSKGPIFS
T1 sequence (Q9NYV8 whole entry): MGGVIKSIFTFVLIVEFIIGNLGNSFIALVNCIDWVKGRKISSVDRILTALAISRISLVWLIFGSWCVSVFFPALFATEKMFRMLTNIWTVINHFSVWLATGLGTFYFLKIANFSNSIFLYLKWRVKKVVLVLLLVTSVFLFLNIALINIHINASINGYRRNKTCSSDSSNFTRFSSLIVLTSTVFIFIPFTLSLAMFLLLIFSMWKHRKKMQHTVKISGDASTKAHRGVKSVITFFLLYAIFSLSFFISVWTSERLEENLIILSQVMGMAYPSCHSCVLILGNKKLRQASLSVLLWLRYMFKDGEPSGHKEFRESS
Chain of hT2R5 (Q9NYW4 whole entry): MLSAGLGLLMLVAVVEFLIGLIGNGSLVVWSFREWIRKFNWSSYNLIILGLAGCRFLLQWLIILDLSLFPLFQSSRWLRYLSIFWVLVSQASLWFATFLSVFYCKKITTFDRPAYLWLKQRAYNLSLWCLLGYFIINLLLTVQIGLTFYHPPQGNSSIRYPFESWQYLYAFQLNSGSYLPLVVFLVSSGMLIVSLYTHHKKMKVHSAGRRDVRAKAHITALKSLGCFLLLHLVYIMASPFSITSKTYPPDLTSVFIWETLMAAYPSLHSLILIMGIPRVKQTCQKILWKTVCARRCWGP
Chain of hT2R8 (Q9NYW2 whole entry): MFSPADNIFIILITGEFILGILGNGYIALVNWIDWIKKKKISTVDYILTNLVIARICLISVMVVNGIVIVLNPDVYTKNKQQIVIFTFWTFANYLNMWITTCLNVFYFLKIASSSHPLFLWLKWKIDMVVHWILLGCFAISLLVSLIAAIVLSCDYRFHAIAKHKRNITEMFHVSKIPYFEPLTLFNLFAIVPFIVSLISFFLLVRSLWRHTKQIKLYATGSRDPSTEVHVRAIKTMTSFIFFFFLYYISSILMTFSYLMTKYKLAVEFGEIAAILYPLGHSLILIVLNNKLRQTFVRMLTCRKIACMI
Chain of hT2R64 (P59538 whole entry): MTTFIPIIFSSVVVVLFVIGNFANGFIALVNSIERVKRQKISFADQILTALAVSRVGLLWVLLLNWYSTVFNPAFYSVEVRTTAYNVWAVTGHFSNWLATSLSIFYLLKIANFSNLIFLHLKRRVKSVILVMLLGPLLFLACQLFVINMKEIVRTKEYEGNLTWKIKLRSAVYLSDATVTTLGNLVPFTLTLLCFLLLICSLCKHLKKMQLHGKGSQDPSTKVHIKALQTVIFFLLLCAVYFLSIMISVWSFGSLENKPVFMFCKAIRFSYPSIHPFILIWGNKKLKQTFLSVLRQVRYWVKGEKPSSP
Chain of hT2R10 (Q9NYW0 whole entry): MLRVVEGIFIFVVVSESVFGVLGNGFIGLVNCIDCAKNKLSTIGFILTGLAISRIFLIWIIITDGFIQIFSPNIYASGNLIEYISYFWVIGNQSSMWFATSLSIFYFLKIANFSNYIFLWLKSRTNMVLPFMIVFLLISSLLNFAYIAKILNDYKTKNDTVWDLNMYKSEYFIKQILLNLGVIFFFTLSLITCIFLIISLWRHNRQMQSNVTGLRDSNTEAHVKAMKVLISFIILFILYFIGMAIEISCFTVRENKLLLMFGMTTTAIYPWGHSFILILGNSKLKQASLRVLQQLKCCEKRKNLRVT
Chain of hT2R71 (P59536 whole entry): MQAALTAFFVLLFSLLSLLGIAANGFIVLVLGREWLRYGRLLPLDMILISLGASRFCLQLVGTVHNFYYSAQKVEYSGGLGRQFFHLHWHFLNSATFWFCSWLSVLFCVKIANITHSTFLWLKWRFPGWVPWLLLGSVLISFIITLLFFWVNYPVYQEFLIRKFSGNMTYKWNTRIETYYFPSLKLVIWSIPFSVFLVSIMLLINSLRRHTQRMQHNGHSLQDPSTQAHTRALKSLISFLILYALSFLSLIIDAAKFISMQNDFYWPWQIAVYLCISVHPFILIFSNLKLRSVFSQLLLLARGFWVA
Chain of hT2R61 (P59537 whole entry): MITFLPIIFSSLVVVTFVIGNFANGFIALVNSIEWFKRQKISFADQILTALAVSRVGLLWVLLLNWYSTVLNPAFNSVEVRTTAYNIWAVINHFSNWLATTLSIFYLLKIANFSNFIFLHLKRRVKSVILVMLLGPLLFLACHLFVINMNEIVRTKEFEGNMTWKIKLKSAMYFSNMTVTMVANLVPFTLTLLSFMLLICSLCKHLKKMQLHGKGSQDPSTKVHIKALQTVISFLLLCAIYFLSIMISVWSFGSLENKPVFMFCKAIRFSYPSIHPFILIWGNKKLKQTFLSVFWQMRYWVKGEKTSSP
Chain of hT2R51 (P59533 whole entry): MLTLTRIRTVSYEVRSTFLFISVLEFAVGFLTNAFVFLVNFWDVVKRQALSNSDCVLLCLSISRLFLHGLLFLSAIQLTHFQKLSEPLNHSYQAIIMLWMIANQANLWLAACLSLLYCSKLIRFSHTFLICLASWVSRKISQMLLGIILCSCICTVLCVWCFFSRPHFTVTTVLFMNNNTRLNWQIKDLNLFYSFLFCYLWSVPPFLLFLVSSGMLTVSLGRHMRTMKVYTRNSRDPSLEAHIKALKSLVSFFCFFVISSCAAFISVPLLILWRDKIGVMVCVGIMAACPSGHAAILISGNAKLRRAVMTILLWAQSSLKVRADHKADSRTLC
Chain of hT2R9 (Q9NYW1 whole entry): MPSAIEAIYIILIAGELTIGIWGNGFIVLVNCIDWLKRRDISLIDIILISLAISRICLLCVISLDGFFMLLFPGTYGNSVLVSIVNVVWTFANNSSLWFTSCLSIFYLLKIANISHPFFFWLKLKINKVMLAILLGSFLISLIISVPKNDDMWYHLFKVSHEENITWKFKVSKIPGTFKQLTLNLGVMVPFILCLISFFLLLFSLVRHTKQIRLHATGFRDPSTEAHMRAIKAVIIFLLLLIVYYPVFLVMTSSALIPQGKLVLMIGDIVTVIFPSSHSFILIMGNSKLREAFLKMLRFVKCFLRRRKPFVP
Chain of hT2R7 (Q9NYW3 whole entry): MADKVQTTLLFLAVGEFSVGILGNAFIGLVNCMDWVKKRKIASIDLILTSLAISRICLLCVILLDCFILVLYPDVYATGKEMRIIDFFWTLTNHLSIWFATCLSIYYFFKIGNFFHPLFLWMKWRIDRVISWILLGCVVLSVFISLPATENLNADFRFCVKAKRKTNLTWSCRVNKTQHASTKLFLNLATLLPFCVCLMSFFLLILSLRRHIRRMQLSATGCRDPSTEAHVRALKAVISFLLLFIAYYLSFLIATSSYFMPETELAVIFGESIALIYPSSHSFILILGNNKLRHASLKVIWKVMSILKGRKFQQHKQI
Chain of hT2R75 (P59540 whole entry): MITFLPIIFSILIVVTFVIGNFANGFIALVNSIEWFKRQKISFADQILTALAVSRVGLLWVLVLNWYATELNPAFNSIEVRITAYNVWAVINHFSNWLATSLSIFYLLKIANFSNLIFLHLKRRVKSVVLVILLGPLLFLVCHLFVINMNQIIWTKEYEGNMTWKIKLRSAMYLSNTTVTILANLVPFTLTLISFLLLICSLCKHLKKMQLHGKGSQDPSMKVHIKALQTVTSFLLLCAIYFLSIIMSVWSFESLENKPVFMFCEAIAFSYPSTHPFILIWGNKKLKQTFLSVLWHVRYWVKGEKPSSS
Chain of hT2R16 (Q9NYV7 whole entry): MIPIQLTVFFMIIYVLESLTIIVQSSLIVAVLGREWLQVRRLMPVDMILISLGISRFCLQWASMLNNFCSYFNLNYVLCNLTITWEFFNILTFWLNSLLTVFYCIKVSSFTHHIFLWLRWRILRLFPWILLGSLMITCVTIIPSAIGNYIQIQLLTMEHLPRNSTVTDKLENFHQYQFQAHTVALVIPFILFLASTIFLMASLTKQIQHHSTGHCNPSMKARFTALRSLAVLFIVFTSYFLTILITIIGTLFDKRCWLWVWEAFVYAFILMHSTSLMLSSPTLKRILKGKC

SMILES	inhibition at 25 µM (hT2R5)	inhibition at 25 µM (hT2R3)	inhibition at 25 µM (hT2R8)	screening result against bitter receptor 63 (hT2R63)	screening result against bitter receptor 44 (hT2R44)	screening result against bitter receptor 55 (hT2R55)	inhibition at 25 µM (hT2R61)	screening result against bitter receptor 54 (hT2R54)	inhibition at 25 µM (hT2R14 [1])	inhibition at 25 µM (hT2R64)	inhibition at 25 µM (hT2R9)	further results
O=C(O)c1ccc(S(=O)(=O)N(Cc2ccccc2)Cc2ccc(Cl)cc2)cc1 [Example 5-77, 4-(N-benzyl-N-(4-chlorobenzyl)sulfamoyl)benzoic acid]	20 to 40%	40 to 60%	20 to 40%	+++ (60% to 80% inhibition = +++)	+ (20% to 40% inhibition = +)	++ (40% to 60% inhibition = ++)	60 to 80%	++ (40% to 60% inhibition = ++)	> 80%	40 to 60%		inhibition at 25 µM (hT2R7): 20 to 40%; inhibition at 25 µM (hT2R10; HEK293, read-out: screening result against bitter receptor 10, compound at 25 μM): 20 to 40%; inhibition at 25 µM (hT2R16): 20 to 40%; inhibition at 25 µM (hT2R51; HEK293, compound at 25 μM, read-out: screening result against bitter receptor 51): 40 to 60%; screening result against bitter receptor 65 (hT2R65): ++ (40% to 60% inhibition = ++); inhibition at 25 µM (hT2R71; HEK293, compound at 25 μM, read-out: screening result against bitter receptor 71): 40 to 60%; screening result against bitter receptor 67 (hT2R67): + (20% to 40% inhibition = +)
COc1ccc(CN(Cc2ccc(F)cc2)S(=O)(=O)c2ccc(C(=O)O)cc2)cc1 [Example 5-69, 4-(N-(4-fluorobenzyl)-N-(4-methoxybenzyl)sulfamoyl)benzoic acid]	20 to 40%		20 to 40%	++++ (80% or greater inhibition = ++++)	+ (20% to 40% inhibition = +)	+++ (60% to 80% inhibition = +++)	60 to 80%		> 80%	40 to 60%		screening result against bitter receptor 10 (hT2R10; compound at 25 μM): + (20% to 40% inhibition = +); screening result against bitter receptor 3 (hT2R3; compound at 25 μM): + (20% to 40% inhibition = +); screening result against bitter receptor 51 (hT2R51; compound at 25 μM): ++ (40% to 60% inhibition = ++); inhibition at 25 µM (hT2R75): 20 to 40%; screening result against bitter receptor 71 (hT2R71; compound at 25 μM): + (20% to 40% inhibition = +); IC50 (hT2R14 [2]): 8.28 µM
COc1ccc(CN(Cc2ccc(C)cc2)S(=O)(=O)c2ccc(C(=O)O)cc2)cc1 [Example 5-66, 4-(N-(4-methoxybenzyl)-N-(4-methylbenzyl)sulfamoyl)benzoic acid]		20 to 40%	20 to 40%		+ (20% to 40% inhibition = +)						20 to 40%	
COc1ccc(CN(Cc2ccccc2C)S(=O)(=O)c2ccc(C(=O)O)cc2)cc1 [Example 5-64, 4-(N-(4-methoxybenzyl)-N-(2-methylbenzyl)sulfamoyl)benzoic acid]	20 to 40%	20 to 40%	20 to 40%	+ (20% to 40% inhibition = +)	+ (20% to 40% inhibition = +)			+ (20% to 40% inhibition = +)		20 to 40%	20 to 40%	
